Patent US8889639B2, “Compositions and methods for modulating PGC-1β to treat lipid-related diseases and disorders” (Dana-Farber Cancer Institute, Inc., priority 2004, dated 2014)

Key:
LXRα = test: 4×LXRE-luc reporter in H2.35 hepatoma cells; format: cell-based, mouse; settings: reporter containing multimerized LXR responsive elements, RNAi cotransfection
Protocol: FIG. 6A-E illustrate the coactivation of LXRα by PGC-1α and PGC-1β. In particular, FIG. 6A depicts H2.35 hepatoma cells that were transiently transfected with 4×LXRE-luc in combination with plasmids. Transfected cells were treated with either vehicle DMSO (open box) or 10 μM of the LXR agonist T0901317 (filled box) for 24 hours before luciferase assay. FIG. 6B depicts H2.35 hepatoma cells that were transiently transfected with wild-type ABCA1 promoter reporter plasmid-(ABCA1-luc) or a mutant lacking the LXRE (ABCA1 ΔLXRE-luc) in combination with plasmids. Transfected cells were treated with vehicle or T0901317 as described in FIG. 6A. FIG. 6C depicts CHIP analysis on LXR target genes. H2.35 cells were infected with adenoviruses expressing GFP, flag-PGC-1α or flag-PGC-1β. Cells were treated with 10 μM of T0901317 for 3 hours before harvesting. PCR was performed on input or precipitated DNA using primers as indicated FIG. 6D depicts the interaction between LXRα and the N-termini of the PGC-1β proteins. […]
FIGS. 7A-H illustrate the requirement for PGC-1β in SREBP-mediated transcription. […] Luciferase activity was measured 48 hours after transfection. […] Total RNA was isolated from infected cells and analyzed by real-time PCR using primers specific for the genes. […] Relative SREBP1c expression was determined by real-time PCR analysis and normalized to 18S rRNA. […]

SREBP2 and SREBP1a = test: FAS -700 luc reporter with SREBP2 and SREBP1a and PGC-1β RNAi constructs in hepatoma cells; format: cell-based, mouse; settings: FAS promoter reporter
From the text: (§1) FIGS. 7A-H illustrate the requirement for PGC-1β in SREBP-mediated transcription. In particular, FIG. 7A depicts knockdown of PGC-1β protein levels by RNAi constructs. Cultured 293 cells were transiently transfected with PGC-1β expression plasmid (f-PGC-1β) in the presence of RNAi constructs or a vector control. Transfected cells were harvested for immunoblotting using a monoclonal antibody against the Flag epitope. Both RNAi constructs decrease PGC-1β protein levels compared to the vector control. FIGS. 7 B-E depict hepatoma cells that were transiently transfected with FAS—700 luc (B-C), G6Pase −1200 luc (D) or 4×LXRE-luc (E) in combination with plasmids. For RNAi, either a vector control or RNAi constructs directed toward PGC-1β were included in the transfection experiments. Luciferase activity was measured 48 hours after transfection. FIG. 7F depicts knockdown of PGC-1β protein by adenoviral expression of RNAi. H2.35 hepatoma cells were infected with Ad-GFP or Ad-RNAi for two days and then infected with Ad-PGC-1β. Total lysates were prepared for immunoblotting analysis using antibodies raised against PGC-1β. […] Total RNA was isolated from infected cells and analyzed by real-time PCR using primers specific for the genes. […] Relative SREBP1c expression was determined by real-time PCR analysis and normalized to 18S rRNA. […]

G6Pase promoter = test: G6Pase -1200 luc reporter with PGC-1α and HNF4α and PGC-1β RNAi constructs in hepatoma cells; format: cell-based, mouse
From the text: as §1

PGC-1β = test: Free fatty acid treatment of primary hepatocytes, PGC-1β mRNA by real-time PCR; format: cell-based, mouse; settings: 400 μM fatty acid, 4 hours
From the text: FIGS. 1A-D depict the induction of PGC-1β expression by dietary intake of saturated fats. In particular, FIG. 1A depicts a cluster analysis of liver gene expression in response to high-fat feeding. FIG. 1A exemplifies genes involved in hepatic lipogenesis that are induced more than 1.8-fold in response to high-fat feeding. A representative probe set was used in generating the tree in the event multiple probe sets were available for a single gene. SREBP1c and PGC-1β were included in this lipogenic cluster. FIG. 1B depicts the real-time PCR analysis of total liver RNA from mice fed a high-fat diet for 1 day (hatched box) or 2 days (filled box). Relative mRNA abundance was calculated by normalization to the control chow values (open box); N=4;*: p<0.01. FIG. 1C depicts the real-time PCR analysis of total liver RNA from mice fed a control diet containing 0.07% cholesterol (open box) or a diet containing 2% cholesterol for 1 day (hatched box) or 2 days (filled box). Values were normalized to those from mice fed the control diet; N=4;*: p<0.02. FIG. 1D depicts the regulation of PGC-1β expression by free fatty acids in isolated hepatocytes. Primary hepatocytes were treated with 400 μM of various fatty acids for 4 hours. Total RNA was isolated and analyzed by realtime PCR using primers specific for […] and PGC-1β (open box); *: p<0.01.
Primary hepatocytes were isolated following perfusion of whole liver first with perfusion buffer (Hank's Balanced Saline, HBSS) and then a collagenase solution (HBSS with 1% BSA and 0.05% collagenase). Dispersed cells were resuspended and seeded onto collagen-coated plates in DMEM supplemented with 10% FBS in the presence of 1 mM sodium pyruvate, 1 μM dexamethasone and 50 nM insulin. The cells were subsequently maintained in DMEM supplemented with 0.1% BSA and 1 mM sodium pyruvate for 24 hours before treatments. Free fatty acids were dissolved in ethanol as 100 mM stock solutions for further dilution in DMEM supplemented with 0.5% BSA to a final concentration of 400 μM. Hepatocytes were treated for 4 hours before RNA isolation and analysis.
(§2) Total RNA was isolated from liver or cultured hepatocytes using Trizol reagent (Invitrogen™). For real-time PCR analysis, cDNA was synthesized by reverse transcription using random primers and subjected to PCR amplification with genespecific primers in the presence of Cybergreen (Biorad™). Relative abundance of mRNA was calculated after normalization to 18S ribosomal RNA. For hybridization, 20 μg of total RNA was resolved on a formaldehyde gel, transferred to nylon membrane and hybridized with 32P-labeled gene-specific probes. Hybridization to ribosomal protein 36B4 was included as loading control.

hepatic gene expression = test: High-cholesterol feeding, liver gene expression by real-time PCR; format: in vivo, mouse; settings: diet containing 2% cholesterol vs 0.07% control
Protocol: Animals were fed a standard rodent chow and housed in a controlled environment with twelve-hour light and dark cycles. For high-fat feeding, three-month old male C57/B16J mice were switched to a diet containing 58% fat-derived calorie (D12331, Research Diets™) for 24 or 48 hours. For high-cholesterol feeding, two groups of mice were fed a base diet supplemented with either 0.07% or 2% cholesterol for 24 or 48 hours. Liver was dissected and immediately frozen for RNA isolation. The feeding experiments were repeated three times with four mice per group for each dietary treatment.
as §2
To examine whether dietary cholesterol had any impact on the expression of SREBPs and PGC-1β mice were fed a control diet containing 0.07% cholesterol or a similar diet containing 2% cholesterol. […] This induction of the genetic program of hepatic lipogenesis following acute intake of a high saturated fat diet was not previously observed.

PGC-1α = test: Free fatty acid treatment of primary hepatocytes, PGC-1α mRNA by real-time PCR; format: cell-based, mouse; settings: 400 μM fatty acid, 4 hours
Protocol: FIG. 1D depicts the regulation of PGC-1β expression by free fatty acids in isolated hepatocytes. Primary hepatocytes were treated with 400 μM of various fatty acids for 4 hours. Total RNA was isolated and analyzed by realtime PCR using primers specific for PGC-1β (filled box) and PGC-1β (open box); *: p<0.01.
Total RNA was isolated from liver or cultured hepatocytes using Trizol reagent (Invitrogen™). […] Relative abundance of mRNA was calculated after normalization to 18S ribosomal RNA.

Compound: 5′-GATATCCTCTGTGATGTTA-3′ (expressed or natural sequence) [SEQ ID NO 60, PGC-1β RNAi construct in pSUPER-retro vector under the H1-RNA promoter]
- LXRα/RXRα transcriptional activity (LXRα): do not alter
- SREBP transcriptional activity with SREBP2 and SREBP1a (SREBP2 and SREBP1a): very similar reduction
- regulation of G6Pase promoter activity by PGC-1α and HNF4α (G6Pase promoter): little or no effect

Compound: 5′-GTACGGAACTGCATAAGCA-3′ (expressed or natural sequence; the letters are possibly those of the target site) [SEQ ID NO:61, PGC-1β RNAi construct in pSUPER-retro vector under the H1-RNA promoter]
- LXRα/RXRα transcriptional activity (LXRα): do not alter
- SREBP transcriptional activity with SREBP2 and SREBP1a (SREBP2 and SREBP1a): very similar reduction
- regulation of G6Pase promoter activity by PGC-1α and HNF4α (G6Pase promoter): little or no effect

Compound: CC/C=C\C/C=C\C/C=C\C/C=C\C/C=C\CCCC(=O)O [EPA]
- PGC-1β expression (PGC-1β): only slightly induce

Compound: CCCCC/C=C\C/C=C\C/C=C\C/C=C\CCCC(=O)O [arachidonic acid]
- PGC-1β expression (PGC-1β): only slightly induce

Compound: CC(C)CCC[C@@H](C)[C@H]1CC[C@H]2[C@@H]3CC=C4C[C@@H](O)CC[C@]4(C)[C@H]3CC[C@]12C [cholesterol]
- SREBP1c mRNA (hepatic gene expression): slightly increased
- expression of PGC-1β (hepatic gene expression): not altered
- hepatic expression of mRNA encoding SREBP2, along with HMGCoA reductase (hepatic gene expression): suppresses
- mRNA level of FAS, SCD-1 and glucose kinase (GK) (hepatic gene expression): remains largely unchanged

Compound: CCCCCCCC/C=C/CCCCCCCC(=O)O [elaidic acid]
- expression of PGC-1α (PGC-1α): 3.2 fold

Compound: CCCCC/C=C\C/C=C\CCCCCCCC(=O)O [linoleic acid]
- PGC-1β expression (PGC-1β): only slightly induce

Compound: CCCCCCCC/C=C\CCCCCCCC(=O)O [oleic acid]
- PGC-1β expression (PGC-1β): only slightly induce

Compound: CCCCCCCCCCCCCCCCCC(=O)O [stearic acid]
- PGC-1β mRNA (PGC-1β): 2.2 fold

Compound: CCCCCC/C=C/CCCCCCCCCC(=O)O [trans-vaccenic acid]
- expression of PGC-1α (PGC-1α): 3.2 fold
